Read-outs that look alike come from different tables or passages of the source.
Key:
[1] = tested on: E. coli K12; assay: MIC, CLSI/NCCLS broth microdilution; assay type: cell-based, Escherichia coli; conditions: Escherichia coli, K12, 24 h, read-out: Minimal Inhibitory Concentration (MIC) E. coli K12
Protocol: (§1) Two different strains of E. coli (Gram-negative) were used. The laboratory strain of E. coli, K-12 (ATCC Accession No. 700926), was used for preliminary MIC determinations. The tetracycline resistant strain of E. coli (Tet^R) was prepared by transforming competent JM109 E. coli (Promega) with the pBR322 plasmid (Carolina Biologicals) using the manufacturers protocol. This plasmid contains two resistance genes: the tetA gene expresses the tetracycline resistance TetA efflux pump (Sapunaric and Levy, Microbiol. 2005, 151, 2315-2322) and the amp^R gene expresses a β-lactamase enzyme (Bolivar, et al; Gene 1977, 2, 95-113) that cleaves the four membered ring of penicillin derivatives. The resulting E. coli, which we designate Tet^R E. coli, is both tetracycline and ampicillin resistant. The TetA efflux pump belongs to the major facilitator superfamily (MFS), spans the cytoplasmic membrane, and transports tetracycline from the cell cytoplasm to the periplasmic space (Thanassi, et al., J. Bacteriol. 1995, 177, 998-1007). This active efflux utilizes the proton gradient as an energy source (Levy, Antimicrob. Agents Chemother. 1992, 36, 695-703). One Gram-positive strain, S. aureus (ATCC Accession No. 29213), used for MIC study expresses the MFS type NorA efflux pump and is methicillin sensitive. MFS type efflux pumps are clinically relevant for resistance in both Gram-positive and Gram-negative bacteria (Sun, et al., Biochem. Biophys. Res. Commun. 2014, 453, 254-267). A Staphylococcus aureus 1199B strain that overexpresses the NorA efflux pump was also used to conduct checkerboard experiments (see, Example 8 below). This strain of S. aureus 1199B is resistant to both norfloxacin and ethidium bromide.
(§2) K-12 E. coli and S. aureus were acquired from ATCC. The S. aureus strain was used in the BSL-2 facility. K-12 E. coli was grown in L. B. Miller media (Sigma-Aldrich) and S. aureus was grown in cation adjusted MHII media (Sigma-Aldrich). Tet^R E. coli was grown in L. B. Miller media containing 100 μg/mL Ampicillin.
(§3) MIC experiments were performed as described in the Clinical and Laboratory Standards Institute (CLSI) standard microdilution protocols. Bacteria was grown overnight from one CFU in media without antibiotics. Tet^R E. coli was grown in media containing 100 μg/mL Ampicillin. On the day of experiment, bacteria were knocked back to O.D. 600 nm=0.550 in the same media. These exponential phase bacteria were then diluted in antibiotics-free media to get […]. In a 96-well plate either L. B. Miller or MHII media was added followed by serially diluted compounds 1-11, tetracycline, or ampicillin. All the tryptophan based compounds were dissolved in DMSO and the final concentration of DMSO in each well was kept constant at 0.5% (v/v).
(§4) For the combination experiments, first, the BT or control was added to the media in the well followed by the antibiotics. The contents of the well were mixed before adding 20 μL of bacteria to get 4×10^5 CFU/mL per well. The plates were incubated at 37° C., 200 RPM for 24 hours before collecting results on the Biotek Cytation 3 plate reader. No more than three plates were stacked on top of each other at a time. Optical density of the wells was determined at λ=600 nm. Cells alone were considered as 0% inhibition and media alone was considered as 100% inhibition. Any inhibition greater than 80% was considered as the MIC. The results were reproduced three times before reporting.
(§5) All minimum inhibitory concentration (MIC) values for compounds 1-11 were determined according to the methods prescribed by the National Committee for Clinical Laboratory Standards (NCCLS, Methods for Dilution Antimicrobial Susceptibility Tests for Bacteria that grow aerobically; National Committee for Clinical Laboratory Standards 2000, 5th Edition, M7-A5). […]

[2] = tested on: Tet^R E. coli; assay: MIC, CLSI/NCCLS broth microdilution; assay type: cell-based, Escherichia coli; conditions: 24 h; for MIC: Escherichia coli, read-out: Minimal Inhibitory Concentration (MIC) E. coli Tet^R
Protocol: as §1, §2, §3, §4, §5

[3] = tested on: S. aureus (ATCC Accession No. 29213); assay: MIC, CLSI/NCCLS broth microdilution; assay type: cell-based, Staphylococcus aureus; conditions: Staphylococcus aureus, read-out: Minimal Inhibitory Concentration (MIC) S. aureus
Protocol: as §1, §2, §3, §4, §5

[4] = tested on: Tet^R E. coli; assay: Recovery of tetracycline activity (co-administration, MIC of tetracycline); assay type: cell-based, Escherichia coli
Protocol: as §3, §4
First, MICs were determined for compounds 2, 3, 5, 6, 7, and 10 against Tet^R E. coli. Compounds 6 (para-Ph) and 7 (n-C3) were also included as controls. The MICs against Tet^R E. coli were refined compared to the power series and are reported as a range in Table 1 above. The MICs of tetracycline and ampicillin against Tet^R E. coli were 900±100 μM and >1000 μM, respectively. For comparison, the MIC for tetracycline against non-resistant E. coli K-12 is ˜3 μM. Ampicillin was used to maintain selective pressure for the expression of pBR322 plasmid. Ampicillin was omitted from experiments that contained tetracycline. Next, the MIC of tetracycline was determined when co-administered with 2, 3, 5, 6, 7, or 10. The results are represented as the MIC of tetracycline in the presence of the indicated BTs. The fold-recovery was determined by dividing the MIC of tetracycline when used alone by the MIC of tetracycline determined in the presence of the compounds.
The fractional inhibitory concentration (FIC) is often used as a measure of synergism or antagonism in comparing two or more compounds (Berenbaum, Pharmacol. Rev. 1989, 41, 93-141). The FIC is the sum of the fraction of the MIC for each compound used. Synergy is defined broadly as FIC<1, or more conservatively as FIC≤0.5. Under the broad definition, all compounds tested can be said to have at least moderate synergy with tetracycline. All arene-based compounds fit the more conservative definition of synergy with FIC values of 0.5 or less at the tested concentrations.

[5] = ATCC29213, >80% growth inhibition, 24 h, 37° C.
[6] = compound at ¼ MIC (2: 12, 3: 7, 5: 14, 6: 30, 7: 30, 10: 2.5 μM)
[7] = compound at ¼ MIC (2: 12, 3: 7, 5: 14, 6: 30, 7: 30, 10: 2.5 μM), tetracycline alone 900 μM
[8] = compound at ½ MIC (2: 24, 3: 14, 5: 28, 6: 60, 7: 60, 10: 5 μM)
[9] = compound at ½ MIC (2: 24, 3: 14, 5: 28, 6: 60, 7: 60, 10: 5 μM), tetracycline alone 900 μM
[10] = compound at 14 μM (single comparison concentration)
[11] = compound at 5 μM (single comparison concentration)

| SMILES | MIC [1] [µM] | MIC [2] [µM] | MIC [3, 5] [µM] | FIC (synergy with tetracycline) ([4]; at the tested concentrations, synergy FIC<1 (broad) or FIC≤0.5 (conservative)) | FIC (fractional inhibitory concentration) with tetracycline [4, 6] | MIC [Tet] (tetracycline in the presence of the compound) [4, 6] [µM] | Fold Recovery of tetracycline activity [4, 7] | FIC (fractional inhibitory concentration) with tetracycline [4, 8] | MIC [Tet] (tetracycline in the presence of the compound) [4, 8] [µM] | Fold Recovery of tetracycline activity [4, 9] | recovery of tetracycline activity ([4]; compound at ½ and ¼ of its MIC) [fold] | melting point | Minimal Inhibitory Concentration (MIC) E. coli Tet^R ([2]; >80% growth inhibition, 37° C., substance alone) [µM] | FIC (fractional inhibitory concentration) with tetracycline [4, 10] | Fold Recovery of tetracycline activity [4, 10] | MIC [Tet] (tetracycline in the presence of the compound) [4, 10] [µM] | MIC ([3]; ATCC29213, 24 h) [µM] | FIC (fractional inhibitory concentration) with tetracycline [4, 11] | Fold Recovery of tetracycline activity [4, 11] | MIC [Tet] (tetracycline in the presence of the compound) [4, 11] [µM] |
| --- | --- | --- | --- | --- | --- | --- | --- | --- | --- | --- | --- | --- | --- | --- | --- | --- | --- | --- | --- | --- |
| Cl.Cl.N[C@H](Cc1c[nH]c2ccccc12)C(=O)NCCCCCCCCCCCCNC(=O)[C@@H](N)Cc1c[nH]c2ccccc12 [Compound 10, (S)-1-((12-((R)-2-Ammonio-3-(1H-indol-3-yl)propanamido)dodecyl)amino)-3-(1H-indol-3-yl)-1-oxopropan-2-aminium chloride] | 8 | 10 ± 2 | 4 | ≥ 0.75 | 0.75 | 450 | 2-fold | 0.75 | 225 | 4-fold | 2 to 4 | 158 °C (dec.) |  |  |  |  |  |  |  |  |
| Cl.Cl.N[C@@H](Cc1c[nH]c2ccccc12)C(=O)Nc1ccccc1NC(=O)[C@@H](N)Cc1c[nH]c2ccccc12 [Compound 5, (2S,2′S)-1,1′-(1,2-Phenylenebis(azanediyl))bis(3-(1H-indol-3-yl)-1-oxopropan-2-aminium) chloride] | 64 | 56 ± 8 | 32 |  | 0.50 | 225 | 4-fold | 0.63 | 112.5 | 8-fold |  | 201 °C (dec.) |  |  |  |  |  |  |  |  |
| Cl.Cl.N[C@@H](Cc1c[nH]c2ccccc12)C(=O)Nc1cccc(NC(=O)[C@@H](N)Cc2c[nH]c3ccccc23)c1 [Compound 2, (2S,2′S)-1,1′-(1,3-Phenylenebis(azanediyl))bis(3-(1H-indol-3-yl)-1-oxopropan-2-aminium) chloride] | 64 | 48 ± 8 | 32 |  | 0.38 | 112.5 | 8-fold | 0.56 | 56.25 | 16-fold |  | 223 °C (dec.) | 48 ± 8 | 0.42 | 8-fold | 112.5 |  |  |  |  |
| Cl.Cl.N[C@@H](Cc1c[nH]c2ccccc12)C(=O)NCCCNC(=O)[C@@H](N)Cc1c[nH]c2ccccc12 [Compound 7, (2S,2′S)-1,1′-(Propane-1,3-diylbis(azanediyl))bis(3-(1H-indol-3-yl)-1-oxopropan-2-aminium) chloride] | > 128 | > 128 |  |  | 0.38 | 112.5 | 8-fold | 0.63 | 112.5 | 8-fold |  | 234 °C (dec.) |  |  |  |  | > 128 | 0.54 | 2-fold | 450 |
| Cl.Cl.N[C@@H](Cc1c[nH]c2ccccc12)C(=O)Nc1ccc(NC(=O)[C@@H](N)Cc2c[nH]c3ccccc23)cc1 [Compound 6, (2S,2′S)-1,1′-(1,4-Phenylenebis(azanediyl))bis(3-(1H-indol-3-yl)-1-oxopropan-2-aminium) chloride] | 128 | 120 ± 14 | 128 |  | 0.50 | 225 | 4-fold | 0.63 | 112.5 | 8-fold |  | 237 °C (dec.) |  | 0.62 | 2-fold | 450 |  |  |  |  |

— patent US11213512B2, “Bis-amino acid based compound and use thereof” (THE CURATORS OF THE UNIVERSITY OF MISSOURI, priority 2016, dated 2022)
